Literature values, collected in article PMC10482975 (Nature Communications, 2023).

Target: M2 mAChR
Conditions: read-out: predicted affinity for allosteric binding; cited from earlier work

In the case of `C[N+](C)(C)CC#CCN1CCCC1=O` [oxotremorine-M], the Kd is listed as greater than 1000 µM.
